{"source": "patent US20260130933A1", "about": "“PHARMACEUTICAL COMPOSITION FOR PREVENTION OR TREATMENT OF NEPHROPATHY AND/OR DIABETES MELLITUS, COMPRISING ENAVOGLIFLOZIN” (DAEWOONG PHARMACEUTICAL CO., LTD., priority 2022, published 2026)", "experiment": "Example 3: phase 3 trial, enavogliflozin 0.3 mg vs dapagliflozin 10 mg once a day for 24 weeks added to metformin and gemigliptin in patients with type 2 diabetes (same endpoints, rescue drug)", "format": "in vivo, human", "procedure": "1) when Metformin (≥1,000 mg/Day) was Administered at a Constant Dose for at Least 8 Weeks Prior to Pre-Visit (Pre-Screening) • Metformin (≥1,000 mg/day) and gemigliptin (50 mg/day) were co-administered during the 8-week stabilization period. […] 4) when Metformin (≥1,000 mg/Day) and Gemigliptin (50 mg/Day) were Co-Administered at Constant Doses for at Least 8 Weeks Prior to Pre-Visit (Prescreening) • Without a separate stabilization period, Pre-visit (pre-screening) was Visit 1 (screening).\nSubjects who met the inclusion/exclusion criteria continued to receive metformin and gemigliptin while receiving a placebo of the clinical trial drug in a single-blind (subject-blinded) state for a 2-week run-in period.\nHere, the randomized subjects were stratified according to the administration therapy (co-administration with two or less agents (one or two agents) or three or more agents) of a conventional hypoglycemic agent (before washout of another hypoglycemic agent) within 24 weeks prior to obtaining written informed consent and by an HbA1c value (<8% or ≥8%) at Visit 1 (screening) measured in the central laboratory.\nThe randomized subjects were administered two tablets of the clinical trial drug corresponding to each administration group once a day, and then visited the institution at weeks 6, 12, 18, and 24 during the 24-week administration period to conduct efficacy and safety assessments. In addition, during the clinical trial period, they were instructed to exercise regularly and control their diet without changing their daily life patterns.\n• 1) Change in HbA1c at week 24 after administration of clinical trial drug compared to Visit 2 (randomization)\n• 1) Change in HbA1c at each time point of weeks 6, 12, and 18 after administration of clinical trial drug compared to Visit 2 (randomization) • 2) Change in FPG at each time point of weeks 6, 12, 18, and 24 after administration of clinical trial drug compared to Visit 2 (randomization) • 3) Proportion of subjects achieving HbA1c<7% at each time point of weeks 6, 12, 18, and 24 after administration of clinical trial drug • 4) Proportion of subjects achieving HbA1c<6.5% at each time point of weeks 6, 12, 18, and 24 after administration of clinical trial drug • 5) Proportion of subjects achieving therapeutic response (HbA1c change (HbA1c at Visit 2—HbA1c at each evaluation time point)>0.5% or HbA1c<7% at each evaluation time point compared to Visit 2 (randomization)) at each time point of weeks 6, 12, 18, and 24 after administration of clinical trial drug • 6) Proportion of subjects achieving therapeutic response (HbA1c change (HbA1c at Visit 2—HbA1c at each evaluation time point)>0.7% or HbA1c<7% at each evaluation time point compared to Visit 2 (randomization)) at each time point of weeks 6, 12, 18, and 24 after administration of clinical trial drug • 7) Proportion of subjects achieving therapeutic response (HbA1c change (HbA1c at Visit 2—HbA1c at each evaluation time point)>1% or HbA1c<7% at each evaluation time point compared to Visit 2 (randomization)) at each time point of weeks 6, 12, 18, and 24 after administration of clinical trial drug", "key": {"[1]": {"conditions": "week 12, per-protocol set, enavogliflozin 0.3 mg, dapagliflozin 10 mg"}, "[2]": {"conditions": "week 18, modified per-protocol set 1, enavogliflozin 0.3 mg vs dapagliflozin 10 mg"}, "[3]": {"conditions": "week 18, modified per-protocol set 1, enavogliflozin 0.3 mg, dapagliflozin 10 mg"}, "[4]": {"conditions": "week 18, modified per-protocol set 2"}}, "data": [{"compound": "OC[C@H]1O[C@@H](c2cc(Cc3ccc(C4CC4)cc3)c(Cl)c3c2CCO3)[C@H](O)[C@@H](O)[C@@H]1O", "note": "[Enavogliflozin, (2S,3R,4R,5S,6R)-2-(7-chloro-6 (4-cyclopropylbenzyl)-2,3-dihydrobenzofuran-4-yl)-6-(hydroxymethyl)tetrahydro-2H-pyran-3,4,5-triol]", "values": [{"measurement": "HbA1c, Median", "setting": "[1]", "value": 6.83, "unit": "%"}, {"measurement": "Subjects achieving HbA1c target of <6.5%, (%)", "setting": "[1]", "value": 23.08, "unit": "%"}, {"measurement": "Subjects achieving HbA1c target of <7%, %", "setting": "[1]", "value": 67.52, "unit": "%"}, {"measurement": "body weight, Median", "setting": "[1]", "value": 65.80, "unit": "kg"}, {"measurement": "Subjects achieving therapeutic glycemic response 1, %", "setting": "week 12, per-protocol set, response 1 = HbA1c change >0.5% or HbA1c <7%, enavogliflozin 0.3 mg, dapagliflozin 10 mg", "value": 89.74, "unit": "%"}, {"measurement": "Subjects achieving therapeutic glycemic response 2, %", "setting": "week 12, per-protocol set, response 2 = HbA1c change >0.7% or HbA1c <7%, enavogliflozin 0.3 mg, dapagliflozin 10 mg", "value": 85.47, "unit": "%"}, {"measurement": "Subjects achieving therapeutic glycemic response 3, %", "setting": "week 12, per-protocol set, response 3 = HbA1c change >1% or HbA1c <7%, enavogliflozin 0.3 mg, dapagliflozin 10 mg", "value": 78.63, "unit": "%"}, {"measurement": "FPG change from baseline, LS mean (SE)", "setting": "week 18", "value": "−27.77(1.63) mg/dL"}, {"measurement": "HDL-C change from baseline, LS mean (SE)", "setting": "week 18", "value": "3.82(0.64) mg/dL"}, {"measurement": "HOMA-IR change from baseline, LS mean (SE)", "setting": "week 18", "value": "−1.14(0.11)"}, {"measurement": "HOMA-β change from baseline, LS mean (SE)", "setting": "week 18", "value": "5.97(2.27)"}, {"measurement": "HbA1c change from baseline, LS mean (SE)", "setting": "week 18", "value": "−0.83(0.05) % p"}, {"measurement": "LDL-C change from baseline, LS mean (SE)", "setting": "week 18", "value": "0.29(1.63) mg/dL"}, {"measurement": "Subjects achieving therapeutic response (HbA1c change >0.5% or HbA1c<7%)", "setting": "week 18", "value": 82.91, "unit": "%"}, {"measurement": "UACR change from baseline, LS mean (SE)", "setting": "week 18", "value": "−11.08(3.89) g/kg"}, {"measurement": "UGCR change from baseline, LS mean (SE)", "setting": "week 18", "value": "58.74(2.33) mg/mg"}, {"measurement": "adiponectin change from baseline, LS mean (SE)", "setting": "week 18", "value": "0.78(0.33) μg/mL"}, {"measurement": "body weight change from baseline, LS mean (SE)", "setting": "week 18", "value": "−3.16(0.24) kg"}, {"measurement": "diastolic blood pressure change from baseline, LS mean (SE)", "setting": "week 18", "value": "−3.41(0.71) mmHg"}, {"measurement": "fasting C-peptide change from baseline, LS mean (SE)", "setting": "week 18", "value": "−0.08(0.02) ng/mL"}, {"measurement": "leptin change from baseline, LS mean (SE)", "setting": "week 18", "value": "−1.46(0.52) ng/ml"}, {"measurement": "systolic blood pressure change from baseline, LS mean (SE)", "setting": "week 18", "value": "−6.82(0.92) mmHg"}, {"measurement": "total cholesterol change from baseline, LS mean (SE)", "setting": "week 18", "value": "4.27(1.94) mg/dL"}, {"measurement": "triglyceride change from baseline, LS mean (SE)", "setting": "week 18", "value": "−11.64(4.46) mg/dL"}, {"measurement": "FPG change from baseline, LS mean difference", "setting": "week 18, vs dapagliflozin", "value": -4.22, "unit": "mg/dL"}, {"measurement": "HDL-C change from baseline, LS mean difference", "setting": "week 18, vs dapagliflozin", "value": 0.40, "unit": "mg/dL"}, {"measurement": "HOMA-IR change from baseline, LS mean difference", "setting": "week 18, vs dapagliflozin", "value": "−0.13"}, {"measurement": "HOMA-β change from baseline, LS mean difference", "setting": "week 18, vs dapagliflozin", "value": 1.48}, {"measurement": "HbA1c change from baseline, LS mean difference", "setting": "week 18, vs dapagliflozin", "value": "−0.07", "unit": "% p"}, {"measurement": "LDL-C change from baseline, LS mean difference", "setting": "week 18, vs dapagliflozin", "value": -1.10, "unit": "mg/dL"}, {"measurement": "Odds ratio for achieving HbA1c<6.5%", "setting": "week 18, vs dapagliflozin", "value": 1.20}, {"measurement": "Odds ratio for achieving HbA1c<7%", "setting": "week 18, vs dapagliflozin", "value": 1.36}, {"measurement": "Odds ratio, therapeutic response (HbA1c change >0.5% or HbA1c<7%)", "setting": "week 18, vs dapagliflozin", "value": 1.02}, {"measurement": "Odds ratio, therapeutic response (HbA1c change >0.7% or HbA1c<7%)", "setting": "week 18, vs dapagliflozin", "value": 1.09}, {"measurement": "Odds ratio, therapeutic response (HbA1c change >1% or HbA1c<7%)", "setting": "week 18, vs dapagliflozin", "value": 1.22}, {"measurement": "UACR change from baseline, LS mean difference", "setting": "week 18, vs dapagliflozin", "value": -2.18, "unit": "g/kg"}, {"measurement": "UGCR change from baseline, LS mean difference", "setting": "week 18, vs dapagliflozin", "value": 13.34, "unit": "mg/mg"}, {"measurement": "adiponectin change from baseline, LS mean difference", "setting": "week 18, vs dapagliflozin", "value": 0.42, "unit": "µg/mL"}, {"measurement": "body weight change from baseline, LS mean difference", "setting": "week 18, vs dapagliflozin", "value": -0.15, "unit": "kg"}, {"measurement": "diastolic blood pressure change from baseline, LS mean difference", "setting": "week 18, vs dapagliflozin", "value": "−0.99", "unit": "mmHg"}, {"measurement": "fasting C-peptide change from baseline, LS mean difference", "setting": "week 18, vs dapagliflozin", "value": -0.02, "unit": "ng/mL"}, {"measurement": "leptin change from baseline, LS mean difference", "setting": "week 18, vs dapagliflozin", "value": -0.40, "unit": "ng/mL"}, {"measurement": "systolic blood pressure change from baseline, LS mean difference", "setting": "week 18, vs dapagliflozin", "value": "−1.66", "unit": "mmHg"}, {"measurement": "total cholesterol change from baseline, LS mean difference", "setting": "week 18, vs dapagliflozin", "value": 0.61, "unit": "mg/dL"}, {"measurement": "triglyceride change from baseline, LS mean difference", "setting": "week 18, vs dapagliflozin", "value": 0.75, "unit": "mg/dL"}, {"measurement": "Change from baseline in HDL-C, ANCOVA LS mean difference", "setting": "[2]", "value": 0.40, "unit": "mg/dL"}, {"measurement": "Change from baseline in LDL-C, ANCOVA LS mean difference", "setting": "[2]", "value": -1.10, "unit": "mg/dL"}, {"measurement": "Change from baseline in total cholesterol, ANCOVA LS mean difference", "setting": "[2]", "value": 0.61, "unit": "mg/dL"}, {"measurement": "Change from baseline in triglycerides, ANCOVA LS mean difference", "setting": "[2]", "value": 0.75, "unit": "mg/dL"}, {"measurement": "Change from baseline in HDL-C, ANCOVA LS mean", "setting": "[3]", "value": 3.82, "unit": "mg/dL"}, {"measurement": "Change from baseline in HDL-C, Mean", "setting": "[3]", "value": 4.09, "unit": "mg/dL"}, {"measurement": "Change from baseline in HDL-C, Median", "setting": "[3]", "value": 3.00, "unit": "mg/dL"}, {"measurement": "Change from baseline in LDL-C, ANCOVA LS mean", "setting": "[3]", "value": 0.29, "unit": "mg/dL"}, {"measurement": "Change from baseline in LDL-C, Mean", "setting": "[3]", "value": 0.94, "unit": "mg/dL"}, {"measurement": "Change from baseline in LDL-C, Median", "setting": "[3]", "value": 0.00, "unit": "mg/dL"}, {"measurement": "Change from baseline in total cholesterol, ANCOVA LS mean", "setting": "[3]", "value": 4.27, "unit": "mg/dL"}, {"measurement": "Change from baseline in total cholesterol, Mean", "setting": "[3]", "value": 5.06, "unit": "mg/dL"}, {"measurement": "Change from baseline in total cholesterol, Median", "setting": "[3]", "value": 3.00, "unit": "mg/dL"}, {"measurement": "Change from baseline in triglycerides, ANCOVA LS mean", "setting": "[3]", "value": -11.64, "unit": "mg/dL"}, {"measurement": "Change from baseline in triglycerides, Mean", "setting": "[3]", "value": -9.60, "unit": "mg/dL"}, {"measurement": "Change from baseline in triglycerides, Median", "setting": "[3]", "value": -2.00, "unit": "mg/dL"}, {"measurement": "Fasting HDL-C, Mean", "setting": "[3]", "value": 50.17, "unit": "mg/dL"}, {"measurement": "Fasting HDL-C, Median", "setting": "[3]", "value": 49.50, "unit": "mg/dL"}, {"measurement": "Fasting LDL-C, Mean", "setting": "[3]", "value": 72.10, "unit": "mg/dL"}, {"measurement": "Fasting LDL-C, Median", "setting": "[3]", "value": 68.00, "unit": "mg/dL"}, {"measurement": "Fasting total cholesterol, Mean", "setting": "[3]", "value": 139.38, "unit": "mg/dL"}, {"measurement": "Fasting triglycerides, Mean", "setting": "[3]", "value": 109.52, "unit": "mg/dL"}, {"measurement": "Fasting triglycerides, Median", "setting": "[3]", "value": 95.50, "unit": "mg/dL"}, {"measurement": "fasting Total cholesterol, Median", "setting": "[3]", "value": 134.00, "unit": "mg/dL"}, {"measurement": "Change from baseline in diastolic blood pressure, ANCOVA LS mean", "setting": "[4]", "value": "−3.41", "unit": "mmHg"}, {"measurement": "Change from baseline in diastolic blood pressure, LS mean difference (enavogliflozin − dapagliflozin)", "setting": "[4]", "value": "−0.99", "unit": "mmHg"}, {"measurement": "Change from baseline in diastolic blood pressure, Mean", "setting": "[4]", "value": "−4.03", "unit": "mmHg"}]}]}
